Laboratory results as given in the supplement of paper PMC10307832.

Assays:
Assay in all cases: relative viability (nuclei count vs DMSO), 5 days (fraction); higher = more cells survive
QS11 + Lapatinib = compound: C1CC2=C(C1)C=C(C=C2)OC3=NC(=C4C(=N3)N(C=N4)CC5=CC=C(C=C5)C6=CC=CC=C6)N[C@@H](CC7=CC=CC=C7)CO [QS11] + CS(=O)(=O)CCNCc1ccc(-c2ccc3ncnc(Nc4ccc(OCc5cccc(F)c5)c(Cl)c4)c3c2)o1 [Lapatinib] (partner 2 µM)
Procedure, shortened: (§1)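 Lung cancer cell lines were pin-tool dosed in 1536-well plates on the day after seeding, with either a lone drug or a fixed anchor-drug dose plus five library-drug doses (not always all listed) in √10 steps. Nuclei were counted on 4× images after 5 days. Relative viability is the ratio of treated-well to vehicle-well nuclei counts, with each value a median of duplicate plates.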

QS11 + Navitoclax = compound: C1CC2=C(C1)C=C(C=C2)OC3=NC(=C4C(=N3)N(C=N4)CC5=CC=C(C=C5)C6=CC=CC=C6)N[C@@H](CC7=CC=CC=C7)CO [QS11] + CC1(C)CCC(c2ccc(Cl)cc2)=C(CN2CCN(c3ccc(C(=O)NS(=O)(=O)c4ccc(N[C@H](CCN5CCOCC5)CSc5ccccc5)c(S(=O)(=O)C(F)(F)F)c4)cc3)CC2)C1 [Navitoclax] (partner 0.5 µM)
Procedure, shortened: as §1

AZ628 + Linsitinib = compound: CC1=C(C=C(C=C1)NC(=O)C2=CC(=CC=C2)C(C)(C)C#N)NC3=CC4=C(C=C3)N=CN(C4=O)C [AZ628] + C[C@]1(O)C[C@@H](c2nc(-c3ccc4ccc(-c5ccccc5)nc4c3)c3c(N)nccn32)C1 [Linsitinib] (partner 1 µM)
Procedure, shortened: as §1

AZ628 + Bortezomib = compound: CC1=C(C=C(C=C1)NC(=O)C2=CC(=CC=C2)C(C)(C)C#N)NC3=CC4=C(C=C3)N=CN(C4=O)C [AZ628] + CC(C)C[C@H](NC(=O)[C@H](Cc1ccccc1)NC(=O)c1cnccn1)B(O)O [Bortezomib] (partner 0.002 µM)
Procedure, shortened: as §1

HCC-366
relative viability (QS11 + Lapatinib; first compound 0.08 µM): 0.97 | relative viability (QS11 + Lapatinib; first compound 0.253 µM): 0.992 | relative viability (QS11 + Lapatinib; first compound 2.53 µM): 0.67 | relative viability (QS11 + Lapatinib; first compound 8 µM): 0.246 | relative viability (QS11 + Navitoclax; first compound 0.08 µM): 1.05 | relative viability (QS11 + Navitoclax; first compound 0.253 µM): 1.08 | relative viability (QS11 + Navitoclax; first compound 2.53 µM): 0.721 | relative viability (QS11 + Navitoclax; first compound 8 µM): 0.414 | relative viability (AZ628 + Linsitinib; first compound 0.08 µM): 0.551 | relative viability (AZ628 + Linsitinib; first compound 0.253 µM): 0.454 | relative viability (AZ628 + Linsitinib; first compound 0.8 µM): 0.426 | relative viability (AZ628 + Linsitinib; first compound 2.53 µM): 0.543 | relative viability (AZ628 + Linsitinib; first compound 8 µM): 0.114 | relative viability (AZ628 + Bortezomib; first compound 0.08 µM): 1.04 | relative viability (AZ628 + Bortezomib; first compound 0.253 µM): 0.894 | relative viability (AZ628 + Bortezomib; first compound 0.8 µM): 0.957 | relative viability (AZ628 + Bortezomib; first compound 2.53 µM): 0.999 | relative viability (AZ628 + Bortezomib; first compound 8 µM): 0.681

HCC-827
relative viability (QS11 + Lapatinib; first compound 0.08 µM): 0.176 | relative viability (QS11 + Lapatinib; first compound 0.253 µM): 0.226 | relative viability (QS11 + Lapatinib; first compound 0.8 µM): 0.158 | relative viability (QS11 + Lapatinib; first compound 2.53 µM): 0.243 | relative viability (QS11 + Lapatinib; first compound 8 µM): 0.227 | relative viability (QS11 + Navitoclax; first compound 0.08 µM): 0.987 | relative viability (QS11 + Navitoclax; first compound 0.253 µM): 1.01 | relative viability (QS11 + Navitoclax; first compound 0.8 µM): 0.833 | relative viability (QS11 + Navitoclax; first compound 2.53 µM): 0.944 | relative viability (QS11 + Navitoclax; first compound 8 µM): 0.899 | relative viability (AZ628 + Linsitinib; first compound 0.08 µM): 0.979 | relative viability (AZ628 + Linsitinib; first compound 0.253 µM): 1.01 | relative viability (AZ628 + Linsitinib; first compound 0.8 µM): 1.01 | relative viability (AZ628 + Linsitinib; first compound 2.53 µM): 0.973 | relative viability (AZ628 + Linsitinib; first compound 8 µM): 0.918 | relative viability (AZ628 + Bortezomib; first compound 0.08 µM): 1.04 | relative viability (AZ628 + Bortezomib; first compound 0.253 µM): 1.03 | relative viability (AZ628 + Bortezomib; first compound 0.8 µM): 1.03 | relative viability (AZ628 + Bortezomib; first compound 2.53 µM): 1.01 | relative viability (AZ628 + Bortezomib; first compound 8 µM): 1.07

HOP-62
relative viability (QS11 + Lapatinib; first compound 0.08 µM): 0.95 | relative viability (QS11 + Lapatinib; first compound 0.253 µM): 1.18 | relative viability (QS11 + Lapatinib; first compound 0.8 µM): 0.863 | relative viability (QS11 + Lapatinib; first compound 2.53 µM): 0.892 | relative viability (QS11 + Lapatinib; first compound 8 µM): 0.983 | relative viability (QS11 + Navitoclax; first compound 0.08 µM): 1.07 | relative viability (QS11 + Navitoclax; first compound 0.253 µM): 1.15 | relative viability (QS11 + Navitoclax; first compound 0.8 µM): 1.04 | relative viability (QS11 + Navitoclax; first compound 2.53 µM): 0.785 | relative viability (QS11 + Navitoclax; first compound 8 µM): 1.22 | relative viability (AZ628 + Linsitinib; first compound 0.08 µM): 1.09 | relative viability (AZ628 + Linsitinib; first compound 0.253 µM): 0.919 | relative viability (AZ628 + Linsitinib; first compound 0.8 µM): 1.06 | relative viability (AZ628 + Linsitinib; first compound 2.53 µM): 1.17 | relative viability (AZ628 + Linsitinib; first compound 8 µM): 0.535 | relative viability (AZ628 + Bortezomib; first compound 0.08 µM): 0.814 | relative viability (AZ628 + Bortezomib; first compound 0.253 µM): 0.832 | relative viability (AZ628 + Bortezomib; first compound 0.8 µM): 1.12 | relative viability (AZ628 + Bortezomib; first compound 2.53 µM): 0.975 | relative viability (AZ628 + Bortezomib; first compound 8 µM): 0.805

IA-LM
relative viability (QS11 + Lapatinib; first compound 0.08 µM): 1.13 | relative viability (QS11 + Lapatinib; first compound 0.253 µM): 1.02 | relative viability (QS11 + Lapatinib; first compound 0.8 µM): 0.513 | relative viability (QS11 + Lapatinib; first compound 2.53 µM): 0.589 | relative viability (QS11 + Lapatinib; first compound 8 µM): 0.596 | relative viability (QS11 + Navitoclax; first compound 0.08 µM): 0.762 | relative viability (QS11 + Navitoclax; first compound 0.253 µM): 0.828 | relative viability (QS11 + Navitoclax; first compound 0.8 µM): 0.69 | relative viability (QS11 + Navitoclax; first compound 2.53 µM): 0.5 | relative viability (QS11 + Navitoclax; first compound 8 µM): 0.614 | relative viability (AZ628 + Linsitinib; first compound 0.08 µM): 0.761 | relative viability (AZ628 + Linsitinib; first compound 0.253 µM): 0.711 | relative viability (AZ628 + Linsitinib; first compound 0.8 µM): 0.509 | relative viability (AZ628 + Linsitinib; first compound 2.53 µM): 0.353 | relative viability (AZ628 + Linsitinib; first compound 8 µM): 0.252 | relative viability (AZ628 + Bortezomib; first compound 0.08 µM): 0.931 | relative viability (AZ628 + Bortezomib; first compound 0.253 µM): 0.689 | relative viability (AZ628 + Bortezomib; first compound 0.8 µM): 0.54 | relative viability (AZ628 + Bortezomib; first compound 2.53 µM): 0.551 | relative viability (AZ628 + Bortezomib; first compound 8 µM): 0.165

LC-2-ad
relative viability (QS11 + Lapatinib; first compound 0.08 µM): 0.91 | relative viability (QS11 + Lapatinib; first compound 0.253 µM): 1.09 | relative viability (QS11 + Lapatinib; first compound 0.8 µM): 0.627 | relative viability (QS11 + Lapatinib; first compound 2.53 µM): 1.04 | relative viability (QS11 + Lapatinib; first compound 8 µM): 0.921 | relative viability (QS11 + Navitoclax; first compound 0.08 µM): 0.407 | relative viability (QS11 + Navitoclax; first compound 0.253 µM): 0.357 | relative viability (QS11 + Navitoclax; first compound 0.8 µM): 0.488 | relative viability (QS11 + Navitoclax; first compound 2.53 µM): 0.335 | relative viability (QS11 + Navitoclax; first compound 8 µM): 0.384 | relative viability (AZ628 + Linsitinib; first compound 0.08 µM): 0.882 | relative viability (AZ628 + Linsitinib; first compound 0.253 µM): 0.829 | relative viability (AZ628 + Linsitinib; first compound 0.8 µM): 0.883 | relative viability (AZ628 + Linsitinib; first compound 2.53 µM): 0.832 | relative viability (AZ628 + Linsitinib; first compound 8 µM): 0.486 | relative viability (AZ628 + Bortezomib; first compound 0.08 µM): 1.06 | relative viability (AZ628 + Bortezomib; first compound 0.253 µM): 0.926 | relative viability (AZ628 + Bortezomib; first compound 0.8 µM): 0.972 | relative viability (AZ628 + Bortezomib; first compound 2.53 µM): 0.972 | relative viability (AZ628 + Bortezomib; first compound 8 µM): 0.751

LOU-NH91
relative viability (QS11 + Lapatinib; first compound 0.08 µM): 0.742 | relative viability (QS11 + Lapatinib; first compound 0.253 µM): 0.622 | relative viability (QS11 + Lapatinib; first compound 2.53 µM): 0.731 | relative viability (QS11 + Lapatinib; first compound 8 µM): 0.685 | relative viability (QS11 + Navitoclax; first compound 0.08 µM): 0.626 | relative viability (QS11 + Navitoclax; first compound 0.253 µM): 0.572 | relative viability (QS11 + Navitoclax; first compound 2.53 µM): 0.657 | relative viability (QS11 + Navitoclax; first compound 8 µM): 0.723 | relative viability (AZ628 + Linsitinib; first compound 0.08 µM): 0.962 | relative viability (AZ628 + Linsitinib; first compound 0.253 µM): 1 | relative viability (AZ628 + Linsitinib; first compound 0.8 µM): 1.07 | relative viability (AZ628 + Linsitinib; first compound 2.53 µM): 0.964 | relative viability (AZ628 + Linsitinib; first compound 8 µM): 0.66 | relative viability (AZ628 + Bortezomib; first compound 0.08 µM): 0.481 | relative viability (AZ628 + Bortezomib; first compound 0.253 µM): 0.478 | relative viability (AZ628 + Bortezomib; first compound 0.8 µM): 0.485 | relative viability (AZ628 + Bortezomib; first compound 2.53 µM): 0.466 | relative viability (AZ628 + Bortezomib; first compound 8 µM): 0.453

LU99A
relative viability (QS11 + Lapatinib; first compound 0.08 µM): 0.83 | relative viability (QS11 + Lapatinib; first compound 0.253 µM): 1.17 | relative viability (QS11 + Lapatinib; first compound 0.8 µM): 1.15 | relative viability (QS11 + Lapatinib; first compound 2.53 µM): 0.963 | relative viability (QS11 + Lapatinib; first compound 8 µM): 0.637 | relative viability (QS11 + Navitoclax; first compound 0.08 µM): 0.867 | relative viability (QS11 + Navitoclax; first compound 0.253 µM): 0.841 | relative viability (QS11 + Navitoclax; first compound 0.8 µM): 0.937 | relative viability (QS11 + Navitoclax; first compound 2.53 µM): 0.847 | relative viability (QS11 + Navitoclax; first compound 8 µM): 0.592 | relative viability (AZ628 + Linsitinib; first compound 0.08 µM): 0.485 | relative viability (AZ628 + Linsitinib; first compound 0.253 µM): 0.444 | relative viability (AZ628 + Linsitinib; first compound 0.8 µM): 0.686 | relative viability (AZ628 + Linsitinib; first compound 2.53 µM): 0.678 | relative viability (AZ628 + Linsitinib; first compound 8 µM): 0.274 | relative viability (AZ628 + Bortezomib; first compound 0.08 µM): 1.15 | relative viability (AZ628 + Bortezomib; first compound 0.253 µM): 1.21 | relative viability (AZ628 + Bortezomib; first compound 0.8 µM): 1.31 | relative viability (AZ628 + Bortezomib; first compound 2.53 µM): 1.07 | relative viability (AZ628 + Bortezomib; first compound 8 µM): 0.451

LXF-289
relative viability (QS11 + Lapatinib; first compound 0.08 µM): 0.941 | relative viability (QS11 + Lapatinib; first compound 0.253 µM): 0.909 | relative viability (QS11 + Lapatinib; first compound 0.8 µM): 0.757 | relative viability (QS11 + Lapatinib; first compound 2.53 µM): 0.821 | relative viability (QS11 + Lapatinib; first compound 8 µM): 0.739 | relative viability (QS11 + Navitoclax; first compound 0.08 µM): 0.98 | relative viability (QS11 + Navitoclax; first compound 0.253 µM): 0.948 | relative viability (QS11 + Navitoclax; first compound 0.8 µM): 0.715 | relative viability (QS11 + Navitoclax; first compound 2.53 µM): 0.859 | relative viability (QS11 + Navitoclax; first compound 8 µM): 0.619 | relative viability (AZ628 + Linsitinib; first compound 0.08 µM): 1.02 | relative viability (AZ628 + Linsitinib; first compound 0.253 µM): 0.949 | relative viability (AZ628 + Linsitinib; first compound 0.8 µM): 0.932 | relative viability (AZ628 + Linsitinib; first compound 2.53 µM): 0.92 | relative viability (AZ628 + Linsitinib; first compound 8 µM): 0.589 | relative viability (AZ628 + Bortezomib; first compound 0.08 µM): 0.994 | relative viability (AZ628 + Bortezomib; first compound 0.253 µM): 1.03 | relative viability (AZ628 + Bortezomib; first compound 0.8 µM): 0.915 | relative viability (AZ628 + Bortezomib; first compound 2.53 µM): 0.917 | relative viability (AZ628 + Bortezomib; first compound 8 µM): 0.648
